Data taken from patent publication US20080248008A1, “Inhibitors of Protein Kinase a Anchoring” (priority 2004, published 2008).
“Also recorded” adds a separate entry of the source.

Tests used:
[1] = molecular target: PKA-RIIα (Homo sapiens, UniProt P13861); assay: Solid phase pull down from T cell lysate, PKA-RIIα; format: binding; parameters: endogenous in cells; host or cells: Jurkat T cells (lysate); conditions: overnight
Description: Solid phase assay and cell lysate. 5×10^6 Y1 cells or 20×10^6 Jurkat T cells lysed in 150 mM NaCl, 1% NP-40, 0.5% deoxycholate, 0.1% SDS and 50 mM Tris HCl (7.8) were incubated overnight at 4° C. with MEME3 and SM3 peptides synthesized on membranes (Autospot, Intavis, AG). The membranes were washed two times for 10 minutes in lysis buffer and thereafter in high salt lysis buffer (1 M NaCl) before boiling in SDS-PAGE loading buffer.
Solid phase pull down (see schematic illustration in FIG. 24A, left panel) was performed to analyse endogenous PKA binding to MEME3. MEME3 and SM3 peptides synthesized in triplicate on membranes were incubated overnight in T cell lysate, thereafter bound proteins were eluted, subjected to 10% PAGE electrophoresis and analysed by immunoblotting (FIG. 11). The presence of PKA subunits was assessed by immunoblotting using specific antibodies against PKA-RIα and PKA-RIIα subunits.

[2] = molecular target: T1, Human RIα (Homo sapiens, UniProt P10644); assay: R-overlay with human RIα; format: binding; conditions: equal amounts of human or bovine RIα, n=3
T1 construct: made in house; host or cells: E. coli BL21 (B121 [sic])
T1 sequence (P10644 whole entry): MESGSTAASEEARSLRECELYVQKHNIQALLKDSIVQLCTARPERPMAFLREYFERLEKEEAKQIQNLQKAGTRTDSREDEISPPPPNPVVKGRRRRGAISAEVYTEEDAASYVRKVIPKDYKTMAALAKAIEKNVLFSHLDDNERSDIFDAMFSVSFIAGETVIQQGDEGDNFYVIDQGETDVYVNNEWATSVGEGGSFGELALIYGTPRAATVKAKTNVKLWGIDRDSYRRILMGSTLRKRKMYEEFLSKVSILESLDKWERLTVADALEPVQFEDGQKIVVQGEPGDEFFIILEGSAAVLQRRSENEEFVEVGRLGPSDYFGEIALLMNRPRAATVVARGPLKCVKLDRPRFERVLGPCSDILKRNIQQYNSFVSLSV
Description: R-overlay. R-overlays were conducted as described, using ^32P-labeled recombinant murine RII (Hausken, Z. E., et al., 1998 in Protein Targeting Protocols, ed. Clegg, R. A. (Humana, Totowa, N.J.), Vol. 88, pp. 47-64) or recombinant bovine RI (A98S) or by cold RI-overlay where bound RIα was detected by Western blot. Cold RI-overlay was performed by incubating the membranes with 250 nM RI overnight at 4° C., then the membranes were washed five times in TBST for 5 min. Detection of RI was performed using an anti-RI rabbit polyclonal antibody (Santa Cruz) at a concentration of 0.2 μg/μl for 1 hour at 4° C. Then the membranes were washed five times for 5 minutes in PBS followed by incubation with HRP-conjugated anti-rabbit IgGs (1:5000) for 1 hour at 4° C. The membranes were washed in PBS as described above before detection by Supersignal West Dura Extended Duration Substrate (Pierce).
The MEME3 sequence was synthesized on a membrane and RIα binding analysed by R-overlay using equal amounts of either human or bovine RIα (FIG. 3C).

[3] = molecular target: PKA-RIα (Homo sapiens, UniProt P10644); assay: Immunofluorescence of PKA-RIα localisation in human T cells; format: cell-based; parameters: endogenous in cells; host or cells: human peripheral blood CD3+ T cells; conditions: 5 μM
Description: Immunofluorescence analysis of cells was performed as previously described (Collas, P. et al., 1996, J. Cell Biol. 135, 1715-1725). RI was detected by using an anti-RI monoclonal antibody (Transduction Laboratories) as a primary antibody at a […] and Alexa-488 as a secondary antibody (1:600, Goat anti Mouse IgGs, Molecular Probes). Immunofluorescence was performed on Y1 cells attached to collagen/fibronectin coated coverslips. Mitochondria were stained using MitoTracker Red CMXRos (Molecular Probes) in fresh medium with incubation at 37° C. for 30 min prior to cell fixation. All cells were washed in PBS, fixed with 3% paraformaldehyde and permeabilised using 0.1% Triton X-100. Proteins were blocked in 2% BSA/PBST prior to antibody labeling. Primary and secondary antibodies were used at a 1:200 dilution in BSA/PBST and incubated for 30 min. DNA was counterstained using TO-PRO 3 (Molecular Probes) at a concentration of 1 μM. […] Alternatively, fluorescently labeled cells were examined using a Leica TCS SP1 confocal fluorescence microscope (Leica, Heidelberg, Germany) equipped with an Ar (488 nm) and two He/Ne (543 and 633 nm) laser lines. […]
Isolated human peripheral blood T cells were treated with MEME3-Arg11 peptide at different concentrations, and the location of PKARIα determined by immunofluorescence.

Chain of PKA-RIIα (P13861 whole entry): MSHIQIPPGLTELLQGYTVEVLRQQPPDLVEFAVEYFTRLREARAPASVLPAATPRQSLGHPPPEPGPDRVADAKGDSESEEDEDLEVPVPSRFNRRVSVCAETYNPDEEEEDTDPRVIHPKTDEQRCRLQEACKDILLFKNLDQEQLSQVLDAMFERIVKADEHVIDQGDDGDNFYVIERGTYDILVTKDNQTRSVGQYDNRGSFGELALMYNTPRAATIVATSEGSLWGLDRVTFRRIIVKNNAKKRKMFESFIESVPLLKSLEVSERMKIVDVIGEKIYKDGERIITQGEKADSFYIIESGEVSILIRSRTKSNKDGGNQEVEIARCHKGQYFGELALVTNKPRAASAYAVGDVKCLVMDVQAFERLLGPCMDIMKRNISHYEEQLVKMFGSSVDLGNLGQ

Compound | immobilization of PKA-RIIα [1] | human RIα binding (R-overlay) [2] | displacement of RI from T cell membranes / cell periphery [3]
CC[C@H](C)[C@H](NC(=O)[C@H](CCC(N)=O)NC(=O)[C@H](CC(=O)O)NC(=O)[C@H](C)NC(=O)[C@H](CC(C)C)NC(=O)[C@H](CCC(N)=O)NC(=O)[C@H](CC(N)=O)NC(=O)[C@H](C)NC(=O)[C@H](Cc1ccc(O)cc1)NC(=O)[C@H](CCC(N)=O)NC(=O)[C@H](CCC(=O)O)NC(=O)[C@@H](N)CC(C)C)C(=O)N[C@H](C(=O)N[C@@H](CCCCN)C(=O)N[C@@H](CCC(=O)O)C(=O)N[C@@H](C)C(=O)N[C@H](C(=O)N[C@@H](CCC(=O)O)C(=O)N[C@@H](CCCCNC(=O)c1ccc2c(c1)C(=O)OC21c2ccc(O)cc2Oc2cc(O)ccc21)C(N)=O)[C@@H](C)O)[C@@H](C)CC [MEME3] | not PKA-RIIα | bound with similar affinity to MEME3 as did bovine RIα | 
IEKELAQQYQNADAITLE [SM3, scrambled MEME3 negative control peptide, reference compound] | Neither PKA-RIα nor PKA-RIIα bound | no RIα binding at all | 
LEQYANQLADQIIKEATERRRRRRRRRrr [MEME3-Arg11] |  |  | Displacement of RI from T cell membranes was observed; also recorded: displaced and delocalized
